# According to PMC8308845, “Discovery of Novel Chemical Series of OXA-48 β-Lactamase Inhibitors by High-Throughput Screening” (Pharmaceuticals, 2021):
# Assays:
# OXA-48 = biological target: T1, OXA-48 (Klebsiella pneumoniae, UniProt Q6XEC0); assay: OXA-48 primary enzymatic assay (nitrocefin substrate, fluorescence-quenching readout); assay type: biochemical; conditions: for AC50 / OXA-48 AC50: dose–response, median of triplicate wells, 15 min preincubation, 25 µM nitrocefin; for fold loss in potency/activity versus parent compound: AC50 ratio, parent ID3 for ID6, parent ID2 for 3 and 5–9
# T1 construct: made in house; host or cells: E. coli BL21(DE3), T7 expression system
# Procedure: After an initial pilot run (three plates, consisting of 960 randomly selected compounds), the primary screening of the subset plates was carried out at 20 µM in single point against OXA-48 enzyme in a nitrocefin-based assay, using the fluorescence-quenching readout. This enzymatic assay employs the cephalosporin nitrocefin as OXA-48 substrate and takes advantage of the fluorescent properties of white microtiter plates. Chromogenic nitrocefin is hydrolyzed by β-lactamases to yield a product with increased absorbance properties (~495 nm) that quenches the plate fluorescence by absorbing the plate’s emission light. In this assay, test compounds that inhibit OXA-48 catalytic activity are predicted to reduce nitrocefin quenching of plate fluorescence, resulting in a quantitative increase in well fluorescence (ON-system for inhibitors). The nitrocefin-based epi-absorbance readout system has been successfully applied in HTS campaigns on other β-lactamases, such as IMP-1 and VIM-2, with the identification of inhibitors belonging to novel scaffolds displaying a favourable degree of selectivity and sub-micromolar potency.
# The screening results were expressed as activity percent. […] Overall, the primary assay robustness was good, with Robust Z Prime factor (RZ′) equal to 0.86.
# In total, 256 active molecules (125 from the subset and 131 from the full set) were then assayed in dose–response at eight concentrations from 60 to 0.002 µM with interplate triplicate data points.
# The blaOXA gene coding for the OXA-48 ß-lactamase, originally cloned from the K. pneumonia 11978 (a clinical isolate from Istanbul Faculty Hospital, Istanbul, Turkey) was overexpressed via a T7 expression system in E. coli BL21(DE3), and its product, native protein, (final yield of 30 mg/L of culture) was subjected to several purification steps, including ion-exchange chromatography with Q-Sepharose and 20 mM Tris-HCl buffer (pH 9.0), followed by chromatography with S-Sepharose columns and 100 mM sodium phosphate buffer (pH 5.8). Elution of the beta-lactamase was performed with a K2SO4 gradient. Peaks of beta-lactamase activity were concentrated and were dialyzed with 100 mM phosphate buffer (pH 7.0). The OXA-48 enzyme was purified to homogeneity (with a degree of purity around 95.4%.)-as measured by 12% SDS PAGE [23]. OXA-48 protein stock solution (2 mg/mL) was finally prepared in 20 mM Hepes (pH 8,1). OXA-48 β-lactamase specific activity was measured by following the hydrolysis of 100 μM nitrocefin (ε: 17,000 M-1 cm^−1 at 482 nm; Δε: 15,000 M-1 cm^−1 at 482 nm) and corresponding to 60.45 μmoles min^−1 mg^−1 of OXA-48 (kcat = 28.85 s^−1) enzyme. A MW of 28,147 g/mol, calculated from the enzyme sequence was confirmed by MALDI-TOF analysis with a Mass error of ± 2.8 Da.
# The primary assay was developed to monitor the enzymatic activity of OXA-48 taking advantage of the spectroscopic properties of white microtiter plates (Optiplate-384, PerkinElmer, #6007290), as indicated by Zuck et al.. Nitrocefin is chromogenic substrate for beta-lactamases with λmax = 395 nm (yellow). Upon hydrolysis by OXA-48, nitrocefin yields (2R)-2-[(R)-carboxy[2-(thiophen-2-yl)acetamido]methyl]-5-[(E)-2-(2,4-dinitrophenyl)ethenyl]-3,6-dihydro-2H-1,3-thiazine-4-carboxylic acid, with increased absorbance properties at λmax = 495 nm. Spectroscopic features of the reaction product are exploited to quench the plate intrinsic fluorescence by absorbing the plate’s emission light, which can be monitored by exciting the reaction at 485 nm and recording the emission at 520 nm. Therefore, the primary assay for HTS was an ON-assay, in which compounds targeting OXA-48 were predicted to elicit an increase of the fluorescence signal.
# The primary assay was performed in reaction buffer (20 mM Hepes pH 8.0, 12.5 mM NaCl, 0.005% BSA, 0.0005% Brij-35) in the presence of 0.0014 ng/µL OXA-48 and 25 µM nitrocefin in a final volume of 20 µL/well in 384 MTP format. […]
# [1] = test system: K. pneumoniae ATCC BAA-2524; assay: MIC by broth microdilution, β-lactam-resistant strain producing OXA-48; assay type: cell-based, Klebsiella pneumoniae; conditions: for MIC: Klebsiella pneumoniae, ATCCBAA2524, β-lactam alone, read-out: MIC β-lactam
# Source text: (§1) To evaluate the capability of restoring β-lactam susceptibility, the two most promising representatives of SC_2 (ID3) and SC_7 (ID2) were screened alone and in combination with ampicillin (AMP) and IMP against sensitive and resistant Gram-negative bacteria. Avibactam and tazobactam were also included in the MIC characterization as BLI reference compounds. Specifically, we used E. coli ATCC25922 as antibiotic-sensitive strain, while E. coli ATCC BAA-2523 and K. pneumoniae ATCC BAA-2524 as β-lactam-resistant bacteria, producing OXA-48 carbapenemase.
# (§2) Test compounds and tazobactam were tested at 32 µg/mL, while avibactam was applied at 4 µg/mL. […] Both antibiotics were selected for the combination study as they can be hydrolyzed by the target OXA-48 enzyme.
# (§3) MIC values were determined by the broth dilution method and interpreted using published guidelines described by Clinical and Laboratory Standards Institute (CLSI).
# (§4) All BLIs were dissolved in 100% DMSO and they were tested at a fixed concentration of 32 µg/mL and 1% of DMSO final concentration. Avibactam was used as reference β-lactamase inhibitor. All antimicrobials were prepared in line with CLSI susceptibility testing standards. AMP (USP # 1033000; batch no. K1M493) was dissolved at 5.12 mg/mL, IMP (USP # 1337809; batch no. R038R0) and avibactam (Biochem # NXL 104; batch no. 20180726) were dissolved at 1.28 mg/mL in the respective solvents recommended by CLSI (2). Solutions at 4X the final concentrations of the test range were made in Cation adjusted Mueller-Hinton broth (CA-MHB, BD # 212322; batch no. 6117994; Expiry date: 29.02.2020) by serial dilutions, and then diluted 2-fold with CA-MHB (for antimicrobials alone), or with the BLIs/avibactam (for combinations of new/reference inhibitors and antimicrobials). Moreover, all BLIs were tested alone at a fixed concentration of 32 μg/mL. The final concentration of DMSO in the test tubes was 1% for each different combination.
# (§5) 50 μL of each well were then transferred from the masterblock into 96-well plates to whom were then added 50 μL of the final inoculum. MIC tests were performed by broth microdilution in line with CLSI susceptibility testing standards. Bacterial inocula were prepared at ca. 1 × 10^6 CFU/mL by diluting 100-fold a 0.5 McFarland suspension in CA-MHB with TES (TREK Diagnostic Systems, Product code: T3462; Batch: 356347; Expiry date: 12-Jun-2019). 50 μL of antibacterial solutions at 2 × the final concentrations were diluted 2-fold with 50 μL of inoculum to give a final inoculum of ca. 5 × 10^5 CFU/mL and desired test concentrations of antibacterial agents. Test plates were incubated according to CLSI guidelines and read visually. MIC values corresponded to the first well with no visible growth.
# E. coli ATCC BAA-2523 = assay: as above; assay type: cell-based, Escherichia coli; conditions: for MIC: Escherichia coli, ATCCBAA2523, β-lactam alone, read-out: MIC β-lactam
# Source text: as §1, §2, §3, §4, §5
# E. coli ATCC25922 = assay: MIC by broth microdilution, antibiotic-sensitive strain; assay type: cell-based; conditions: Escherichia coli, β-lactam alone, read-out: MIC β-lactam
# Source text: as §1, §2, §3, §4, §5
# T1 sequence (Q6XEC0 23-265, looked up): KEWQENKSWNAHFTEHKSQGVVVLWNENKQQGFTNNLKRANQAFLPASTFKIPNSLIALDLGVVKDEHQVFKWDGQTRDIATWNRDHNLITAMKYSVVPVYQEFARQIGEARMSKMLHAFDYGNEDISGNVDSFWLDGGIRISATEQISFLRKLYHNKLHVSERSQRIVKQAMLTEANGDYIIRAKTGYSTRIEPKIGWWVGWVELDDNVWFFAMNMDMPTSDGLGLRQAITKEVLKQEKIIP
SMILES,AC50 (OXA-48),also measured
"CCc1ccc(-c2n[nH]c3nc(-c4cc(F)c(O)c(F)c4)cc(C(=O)O)c23)cc1 [Compound 6, 6-(3,5-Difluoro-4-hydroxyphenyl)-3-(4-ethylphenyl)-1H-pyrazolo[3,4-b]pyridine-4-carboxylic acid]",24.4 µM,–
CCc1ccc(-c2n[nH]c3nc(-c4ccccc4)cc(C(=O)O)c23)cc1 [ID30],249 µM,OXA-48 AC50 (OXA-48): inactive
"CCc1ccc(-c2n[nH]c3nc(-c4ccc(C(=O)O)cc4F)cc(C(=O)O)c23)cc1 [Compound 2, 6-(4-Carboxy-2-fluorophenyl)-3-(4-ethylphenyl)-1H-pyrazolo[3,4-b]pyridine-4-carboxylic acid]",1.48 µM,–
"CCc1ccc(-c2n[nH]c3nc(-c4cc(F)c(O)cc4F)cc(C(=O)O)c23)cc1 [Compound 5, 6-(2,5-Difluoro-4-hydroxyphenyl)-3-(4-ethylphenyl)-1H-pyrazolo[3,4-b]pyridine-4-carboxylic acid]",16.2 µM,–
"CCc1ccc(-c2n[nH]c3nc(-c4cc(Cl)c(O)c(OC)c4)cc(C(=O)O)c23)cc1 [Compound 8, 6-(3-Chloro-4-hydroxy-5-methoxyphenyl)-3-(4-ethylphenyl)-1H-pyrazolo[3,4-b]pyridine-4-carboxylic acid]",13.7 µM,–
"C[C@@H](O)[C@H]1C(=O)N2C(C(=O)O)=C(SCCN=CN)C[C@H]12 [IMP, imipenem]",–,MIC [1]: 4 µg/mL; MIC (E. coli ATCC BAA-2523): 2 µg/mL; MIC (E. coli ATCC25922): 0.12 µg/mL
"CCc1ccc(-c2n[nH]c3nc(-c4ccc(O)c(F)c4F)cc(C(=O)O)c23)cc1 [Compound 7, 6-(2,3-Difluoro-4-hydroxyphenyl)-3-(4-ethylphenyl)-1H-pyrazolo[3,4-b]pyridine-4-carboxylic acid]",51.2 µM,–
"CCc1ccc(-c2n[nH]c3nc(-c4ccc(C(=O)O)cc4)cc(CC)c23)cc1 [Compound 13, 4-(4-Ethyl-3-(4-ethylphenyl)-1H-pyrazolo[3,4-b]pyridin-6-yl)benzoic acid]",> 100 µM,–
"CCc1ccc(-c2n[nH]c3nc(-c4ccc(C(=O)O)c(F)c4)cc(C(=O)O)c23)cc1 [Compound 1, 6-(4-Carboxy-3-fluorophenyl)-3-(4-ethylphenyl)-1H-pyrazolo[3,4-b]pyridine-4-carboxylic acid]",0.92 µM,–
"CCc1ccc(-c2n[nH]c3nc(-c4ccc(CC(=O)O)cc4)cc(C(=O)O)c23)cc1 [Compound 4, 6-(4-(Carboxymethyl)phenyl)-3-(4-ethylphenyl)-1H-pyrazolo[3,4-b]pyridine-4-carboxylic acid]",4.78 µM,–
O=C(O)c1ccc(/C=N/n2cnnc2S)cc1 [ID6],15.7 µM,fold loss in potency/activity versus parent compound (OXA-48): more than 20 fold
"CCc1ccc(-c2n[nH]c3nc(-c4ccc(C(=O)O)cc4)ccc23)cc1 [Compound 10, 4-(3-(4-Ethylphenyl)-1H-pyrazolo[3,4-b]pyridin-6-yl)benzoic acid]",> 100 µM,–
"CCc1ccc(-c2n[nH]c3nc(-c4cccc(C(=O)O)c4)cc(C(=O)O)c23)cc1 [Compound 3, 6-(3-Carboxyphenyl)-3-(4-ethylphenyl)-1H-pyrazolo[3,4-b]pyridine-4-carboxylic acid]",16.8 µM,fold loss in potency/activity versus parent compound (OXA-48): 17 fold
"CCc1ccc(-c2n[nH]c3nc(-c4ccc(C(=O)O)cc4)cc(C(N)=O)c23)cc1 [Compound 14, 4-(4-Carbamoyl-3-(4-ethylphenyl)-1H-pyrazolo[3,4-b]pyridin-6-yl)benzoic acid]",–,OXA-48 AC50 (OXA-48): complete loss of activity
"CCc1ccc(-c2n[nH]c3nc(-c4ccc(C(=O)O)cc4)cc(CO)c23)cc1 [Compound 12, 4-(3-(4-Ethylphenyl)-4-(hydroxymethyl)-1H-pyrazolo[3,4-b]pyridin-6-yl)benzoic acid]",> 100 µM,OXA-48 AC50 (OXA-48): complete loss of activity
"CCc1ccc(-c2n[nH]c3nc(-c4ccc(C(=O)O)cc4)cc(C(F)(F)F)c23)cc1 [Compound 11, 4-(3-(4-Ethylphenyl)-4-(trifluoromethyl)-1H-pyrazolo[3,4-b]pyridin-6-yl)benzoic acid]",> 100 µM,–
CCc1ccc(-c2n[nH]c3nc(-c4ccccc4O)cc(C(=O)O)c23)cc1 [ID31],–,OXA-48 AC50 (OXA-48): inactive
"CCc1ccc(-c2n[nH]c3nc(-c4cc(F)c(O)c(Cl)c4)cc(C(=O)O)c23)cc1 [Compound 9, 6-(3-Chloro-5-fluoro-4-hydroxyphenyl)-3-(4-ethylphenyl)-1H-pyrazolo[3,4-b]pyridine-4-carboxylic acid]",63.8 µM,–
"CC1(C)S[C@@H]2[C@H](NC(=O)[C@H](N)c3ccccc3)C(=O)N2[C@H]1C(=O)O [AMP, ampicillin]",–,MIC [1]: > 512 µg/mL; MIC β-lactam ([1]; β-lactam alone): >512 µg/mL; MIC (E. coli ATCC BAA-2523): > 512 µg/mL; MIC β-lactam (E. coli ATCC BAA-2523; β-lactam alone): >512 µg/mL; MIC (E. coli ATCC25922): 4 µg/mL

# Now from value to molecule, other results behind:
AC50 (OXA-48),SMILES,also measured
24.8 µM,Sc1nnc(-c2ccccc2)n1/N=C/c1cccs1 [ID23],–
35.6 µM,COC(=O)c1ccc(/C=N/n2c(S)nnc2-c2ccccc2)cc1 [ID9],–
12 µM,N#Cc1ccc(/C=N/n2c(S)nnc2-c2ccccc2)cc1 [ID11],–
2.88 µM,O=C(O)c1ccc(/C=N/n2c(S)nnc2C2CCCCC2)cc1 [ID5],–
3.17 µM,O=C(O)c1ccc(/C=N/n2c(S)nnc2-c2ccc(Cl)cc2Cl)cc1 [ID4],–
